From patent US8859541B2, “6-alkynylpyridines” (Boehringer Ingelheim International GmbH, priority 2012, dated 2014)

Biological target: T1, XIAP BIR3 (Homo sapiens, UniProt P98170)
T1 construct: covering amino acids 241 to 356; XIAP BIR3; made in house; host or cells: E. coli
Assay: XIAP BIR3 binding assay (DELFIA), displacement of SMAC peptide
Settings: GST-fusion BIR3 domain (aa 241 to 356) 10 nM, SMAC peptide 10 nM; activity of the (S)-isomers
Experimental: Biological Methods XIAP BIR3 and cIAP1 BIR3 Binding Assays (DELFIA)
Peptide […]-Lys(Biotin), representing the N-terminus of mature human SMAC (SMAC peptide), was used as interaction partner in the protein-peptide interaction assay.
BIR3 domains (10 nM) were incubated with SMAC peptide (10 nM) in Assay Buffer (50 mM Tris, 120 mM NaCl, 0.1% BSA, 1 mM DTT, 0.05% TritonX100) for one hour at room temperature in the presence of inhibitiory compounds. The assay mixture was transferred to a strepatvidin coated plate and incubated for one hour at room temperature to allow binding of the biotinylated peptide and associated BIR3 domains to the plate. After several washing steps Eu labeled anti-GST antibody (e.g. Perkin Elmer DELFIA Eu-N1-antiGST AD0250) was added to detect BIR3 domain-SMAC peptide interactions according to Perkin Elmer's instructions. […] Time resolved Europium fluoresecence was measured in a Wallac Victor using Standard assay settings.
DELFIA assay results were plotted against compound concentrations and Software GraphPad Prizm was used to calculate half maximal inhibitory concentrations (IC50 values).

T1 sequence (P98170 241-356): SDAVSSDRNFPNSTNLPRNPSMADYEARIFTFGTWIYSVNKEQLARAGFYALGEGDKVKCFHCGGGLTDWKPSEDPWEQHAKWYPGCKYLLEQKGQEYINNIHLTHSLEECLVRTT

Structure (SMILES) | IC50 [µM]
CNC(C)C(=O)Nc1ccc(-c2cnc3ccc(C#N)cn23)c(C#Cc2ccc3cnccc3c2)n1 (stereo not drawn) [Example 40, N-[5-(6-cyanoimidazo[1,2-a]-pyridin-3-yl)-6-(2-isoquinolin-6-ylethynyl)pyridin-2-yl]-2-(methylamino)propanamide] | 0.445
CNC(C)C(=O)Nc1ccc(-c2c(C)nc3ccccn23)c(C#Cc2ccc3c(Cl)nccc3c2)n1 (stereo not drawn) [Example 43, N-[6-[2-(1-chloroisoquinolin-6-yl)ethynyl]-5-(2-methyl-imidazo[1,2-a]pyridin-3-yl)-pyridin-2-yl]-2-(methylamino)-propanamide] | 0.31
CNC(C)C(=O)Nc1ccc(-c2c(C)nc3ccccn23)c(C#Cc2ccc3cc(F)ccc3c2)n1 (stereo not drawn) [Example 51, N-[6-[2-(6-fluoronaphthalen-2-yl)ethynyl]-5-(2-methyl-imidazo[1,2-a]pyridin-3-yl)-pyridin-2-yl]-2-(methylamino)-propanamide] | 0.453
CNC(C)C(=O)Nc1ccc(-c2c(C)nc3ccccn23)c(C#Cc2ccc(-c3ccncn3)cc2)n1 (stereo not drawn) [Example 55, 2-(methylamino)-N-[5-(2-methylimidazo[1,2-a]pyridin-3-yl)-6-[2-(4-pyrimidin-4-ylphenyl)ethynyl]pyridin-2-yl]-propanamide] | 0.31
CNC(C)C(=O)Nc1ccc(-c2c(Cl)cncc2Cl)c(C#Cc2ccc3ncccc3c2)n1 (stereo not drawn) [Example 56, N-[5-(3,5-dichloropyridin-4-yl)-6-(2-quinolin-6-ylethynyl)-pyridin-2-yl]-2-(methylamino)-propanamide] | 2.88
CNC(C)C(=O)Nc1ccc(-c2cnc(SC)nc2C#N)c(C#Cc2ccc3cnccc3c2)n1 (stereo not drawn) [Example 59, N-[5-(4-cyano-2-methylsulfanylpyrimidin-5-yl)-6-(2-isoquinolin-6-ylethynyl)-pyridin-2-yl]-2-(methylamino)-propanamide] | 0.918
CNC(=O)c1ccc(C#Cc2nc(NC(=O)C(C)NC)ccc2-c2c(C)nc3ccccn23)cn1 (stereo not drawn) [Example 62, N-methyl-5-[2-[6-[[2-(methyl-amino)propanoyl]amino]-3-(2-methylimidazo[1,2-a]pyridin-3-yl)pyridin-2-yl]ethynyl]pyridine-2-carboxamide] | 0.62
CNC(C)C(=O)Nc1ccc(-c2c(C)nc3ccccn23)c(C#Cc2ccc(-c3ccc(OC)cc3)cc2)n1 (stereo not drawn) [Example 65, N-[6-[2-[4-(4-methoxyphenyl)-phenyl]ethynyl]-5-(2-methyl-imidazo[1,2-a]pyridin-3-yl)-pyridin-2-yl]-2-(methylamino)-propanamide] | 1.19
CNC(C)C(=O)Nc1ccc(-c2c(C)nc3ccccn23)c(C#Cc2nc3ccccc3s2)n1 (stereo not drawn) [Example 67, N-[6-[2-(1,3-benzothiazol-2-yl)-ethynyl]-5-(2-methyl-imidazo[1,2-a]pyridin-3-yl)-pyridin-2-yl]-2-(methylamino)-propanamide] | 0.27
CNC(C)C(=O)Nc1ccc(-c2c(C)nc3cnccn23)c(C#Cc2ccc3ncccc3c2)n1 (stereo not drawn) [Example 68, 2-(methylamino)-N-[5-(2-methylimidazo[1,2-a]pyrazin-3-yl)-6-(2-quinolin-6-ylethynyl)-pyridin-2-yl]propanamide] | 0.165
CNC(C)C(=O)Nc1ccc(-c2c(C)nc3ccccn23)c(C#Cc2ccc3nc(OC)ccc3c2)n1 (stereo not drawn) [Example 73, N-[6-[2-(2-methoxyquinolin-6-yl)ethynyl]-5-(2-methyl-imidazo[1,2-a]pyridin-3-yl)-pyridin-2-yl]-2-(methylamino)-propanamide] | 0.378
CNC(C)C(=O)Nc1ccc(-c2c(C)nc(N(C)C)nc2C)c(C#Cc2ccc3ncccc3c2)n1 (stereo not drawn) [Example 76, N-[5-[2-(dimethylamino)-4,6-dimethylpyrimidin-5-yl]-6-(2-quinolin-6-ylethynyl)pyridin-2-yl]-2-(methylamino)propan-amide] | 1.07
CNC(C)C(=O)Nc1ccc(-c2c(C)nc(N3CCOCC3)nc2C)c(C#Cc2ccc3cnccc3c2)n1 (stereo not drawn) [Example 83, N-[5-(4,6-dimethyl-2-morpholin-4-ylpyrimidin-5-yl)-6-(2-isoquinolin-6-ylethynyl)-pyridin-2-yl]-2-(methylamino)-propanamide] | 0.446
CNC(C)C(=O)Nc1ccc(-c2c(C)nc3ccccn23)c(C#Cc2ccc(F)c3ncccc23)n1 (stereo not drawn) [Example 84, N-[6-[2-(8-fluoroquinolin-5-yl)-ethynyl]-5-(2-methyl-imidazo[1,2-a]pyridin-3-yl)-pyridin-2-yl]-2-(methylamino)-propanamide] | 0.13
CNC(C)C(=O)Nc1ccc(-c2c(C)nc3ccccn23)c(C#Cc2ccc(OC)c3ncccc23)n1 (stereo not drawn) [Example 85, N-[6-[2-(8-methoxyquinolin-5-yl)ethynyl]-5-(2-methyl-imidazo[1,2-a]pyridin-3-yl)-pyridin-2-yl]-2-(methylamino)-propanamide] | 0.259
CNC(C)C(=O)Nc1ccc(-c2c(C)nc(N3CCOCC3)nc2C)c(C#Cc2ccc(-c3cccnc3)cc2)n1 (stereo not drawn) [Example 86, N-[5-(4,6-dimethyl-2-morpholin-4-ylpyrimidin-5-yl)-6-[2-(4-pyridin-3-ylphenyl)-ethynyl]pyridin-2-yl]-2-(methyl-amino)propanamide] | 0.77
CNC(C)C(=O)Nc1ccc(-c2c(C)nc3ccccn23)c(C#Cc2ccc(-c3ccncc3)cc2)n1 (stereo not drawn) [Example 91, 2-(methylamino)-N-[5-(2-methylimidazo[1,2-a]pyridin-3-yl)-6-[2-(4-pyridin-4-ylphenyl)-ethynyl]pyridin-2-yl]propan-amide] | 0.267

Structure (SMILES) | IC50 [µM]
CNC(C)C(=O)Nc1ccc(-c2c(C)noc2C)c(C#Cc2ccc3cnccc3c2)n1 (stereo not drawn) [Example 97, N-[5-(3,5-dimethyl-1,2-oxazol-4-yl)-6-(2-isoquinolin-6-ylethynyl)pyridin-2-yl]-2-(methylamino)propanamide] | 0.644
CNC(C)C(=O)Nc1ccc(-c2cnc3ccccc3c2)c(C#Cc2ccc3ccccc3c2)n1 (stereo not drawn) [Example 98, 2-(methylamino)-N-[6-(2-naphthalen-2-ylethynyl)-5-quinolin-3-yl-pyridin-2-yl]propanamide] | 0.526
CC(N)C(=O)Nc1ccc(-c2cccc(C(=O)O)c2)c(C#Cc2ccccc2)n1 (stereo not drawn) [Example 99, 3-[6-(2-aminopropanoylamino)-2-(2-phenylethynyl)pyridin-3-yl]-benzoic acid] | 0.521
CC(N)C(=O)Nc1ccc(-c2cccnc2)c(C#Cc2ccccc2)n1 (stereo not drawn) [Example 101, 2-amino-N-[6-(2-phenylethynyl)-5-pyridin-3-ylpyridin-2-yl]-propanamide] | 0.128
CC(N)C(=O)Nc1ccc(-c2ccccc2F)c(C#Cc2ccccc2)n1 (stereo not drawn) [Example 102, 2-amino-N-[5-(2-fluorophenyl)-6-(2-phenylethynyl)pyridin-2-yl]-propanamide] | 1.98
CC(N)C(=O)Nc1ccc(-c2c(Cl)cccc2Cl)c(C#Cc2ccccc2)n1 (stereo not drawn) [Example 103, 2-amino-N-[5-(2,6-dichlorophenyl)-6-(2-phenyl-ethynyl)pyridin-2-yl]propanamide] | 3.04
Cc1cccc(C)c1-c1ccc(NC(=O)C(C)N)nc1C#Cc1ccccc1 (stereo not drawn) [Example 104, 2-amino-N-[5-(2,6-dimethyl-phenyl)-6-(2-phenylethynyl)-pyridin-2-yl]propanamide] | 2.02
CC(N)C(=O)Nc1ccc(-c2cncnc2)c(C#Cc2ccccc2)n1 (stereo not drawn) [Example 105, 2-amino-N-[6-(2-phenylethynyl)-5-pyrimidin-5-ylpyridin-2-yl]-propanamide] | 0.22
CC(N)C(=O)Nc1ccc(-c2cncc(F)c2)c(C#Cc2ccccc2)n1 (stereo not drawn) [Example 106, 2-amino-N-[5-(5-fluoropyridin-3-yl)-6-(2-phenylethynyl)pyridin-2-yl]propanamide] | 0.243
CC(N)C(=O)Nc1ccc(-c2ccccc2)c(C#Cc2ccccc2)n1 (stereo not drawn) [Example 107, 2-amino-N-[5-phenyl-6-(2-phenylethynyl)pyridin-2-yl]-propanamide] | 1.01
CC(N)C(=O)Nc1ccc(-c2ccccc2C#N)c(C#Cc2ccccc2)n1 (stereo not drawn) [Example 109, 2-amino-N-[5-(2-cyanophenyl)-6-(2-phenylethynyl)pyridin-2-yl]-propanamide] | 0.65
CC(N)C(=O)Nc1ccc(-c2ccccc2C(F)(F)F)c(C#Cc2ccccc2)n1 (stereo not drawn) [Example 110, 2-amino-N-[6-(2-phenylethynyl)-5-[2-(trifluoromethyl)phenyl]-pyridin-2-yl]propanamide] | 3.19
CC(N)C(=O)Nc1ccc(-c2cc(F)cc(F)c2)c(C#Cc2ccccc2)n1 (stereo not drawn) [Example 111, 2-amino-N-[5-(3,5-difluorophenyl)-6-(2-phenyl-ethynyl)pyridin-2-yl]propanamide] | 1.55
CC(N)C(=O)Nc1ccc(-c2ccc(-c3ccc(F)cc3)nc2)c(C#Cc2ccccc2)n1 (stereo not drawn) [Example 112, 2-amino-N-[5-[6-(4-fluorophenyl)pyridin-3-yl]-6-(2-phenylethynyl)pyridin-2-yl]-propanamide] | 1.07
CC(N)C(=O)Nc1ccc(-c2cccc(F)c2)c(C#Cc2ccccc2)n1 (stereo not drawn) [Example 114, 2-amino-N-[5-(3-fluorophenyl)-6-(2-phenylethynyl)pyridin-2-yl]-propanamide] | 1.63
CC(N)C(=O)Nc1ccc(-c2cc(F)cc(C(F)(F)F)c2)c(C#Cc2ccccc2)n1 (stereo not drawn) [Example 115, 2-amino-N-[5-[3-fluoro-5-(trifluoromethyl)phenyl]-6-(2-phenylethynyl)pyridin-2-yl]-propanamide] | 2.04
